Measured values taken from paper PMC9962283, “The Plant Derived 3-3′-Diindolylmethane (DIM) Behaves as CB2 Receptor Agonist in Prostate Cancer Cellular Models” (International Journal of Molecular Sciences, 2023).
“Also recorded” adds a separate entry of the source.

Legend:
[1] = system: PC3 cells; assay: Cell viability (MTT) assay in PC3 cells; format: cell-based, human; conditions: 24 h, DIM alone
Experimental: (§1) Human prostate cancer cell lines, LNCaP and PC3, were obtained from the European Collection of Animal Cell Cultures. These were cultured in RPMI 1640 medium (Merck Life Science Ltd., Gillingham, UK) containing 10% (vol:vol) fetal bovine serum and 1% (vol:vol) Penicillin–Streptomycin Solution (10,000 U/mL penicillin and 10 mg/mL streptomycin in 0.9% sodium chloride (Merck Life Science Ltd., Gillingham, UK).
(§2) A standard 3-(4,-5-dimethylthiazol-2-yl)-2,-5-diphenyl tetrazolium bromide (MTT) dye reduction assay was used to assess compounds. Briefly, cells were plated in a flat-bottomed 96-well plate at seeding densities of 6 × 10^3 cells per well for LNCaP cells and 5 × 10^3 cells per well for PC3 cells. Cells were treated the following day with the appropriate agents for 24 h. Following the incubation period, the MTT solution (5 mg/mL in phosphate-buffered saline) was added and incubated for 4 h. The contents of the wells were removed and replaced with 200 μL DMSO to dissolve the MTT formazan crystals. The plates were immediately read at 570 nm in a multi-well plate reader (DynaTech MR5000; Dynex Technologies Ltd., Chantilly, VA, USA).
(§3) Values for half of the maximal effective concentration required to elicit a response (EC50), or for the half maximal inhibitory concentration (IC50) required to inhibit a response, as well as for maximal effect (Emax), standard error of the mean (S.E.M.) and 95% confidence limits of EC50 and IC50, have been calculated by nonlinear regression analysis using the equation for a sigmoid concentration–response curve (GraphPad Prism v5.0, San Diego, CA, USA). Paired Student’s t-test or one-way ANOVA analysis of variance (with Tukey’s post hoc analysis) was used where appropriate for cell viability and western blotting data. A value of p < 0.05 was taken as being significant.

[2] = system: LNCaP cells; assay: Cell viability (MTT) assay in LNCaP cells; format: cell-based, human; conditions: 24 h, DIM alone
Experimental: as §1, §2, §3

[3] = system: CB1 receptors; set-up: method as in PMID 19286662; conditions: hCB1/CB2-CHO transfected cells; cited from earlier work
[4] = system: CB2 receptors; set-up: method as in PMID 19286662; conditions: hCB1/CB2-CHO transfected cells, β-arrestin assay; cited from earlier work
[5] = system: cannabinoid CB1 or CB2 receptors (PC3 cell membranes); assay: [35S]GTPγS binding in PC3 cell membranes; format: biochemical, human; conditions: for EC50: agonist alone, read-out: EC50, stimulation of [35S]GTPγS binding
Experimental: (§4) Binding assays with [^35S]GTPγS were performed with PC3 or LNCaP cell membranes. Both PC3 and LNCaP cells were removed from flasks by scraping and then frozen as a pellet at −20 °C until required. Before use in a radioligand-binding assay, cells were defrosted, diluted in Tris buffer (50 mM Tris–HCl, 50 mM Tris-Base) and homogenized. Protein assays were performed using a Bio-Rad Dc kit (Bio-Rad©, Watford, UK).
(§5) The measurement of ligand-stimulated [^35S]GTPγS binding to cannabinoid CB1 or CB2 receptors was adapted from methods described previously. The assays were carried out with GTPγS-binding buffer (50 mM Tris–HCl, 50 mM Tris-Base, 5 mM MgCl2, 1 mM ethylenediaminetetraacetic acid, 100 mM NaCl, 1 mM dithiothreitol and 0.1% bovine serum albumin) in the presence of [^35S]GTPγS and GDP, in a final volume of 500 μL. Binding was initiated by the addition of [^35S]GTPγS to the wells. Non-specific binding was measured in the presence of 30 μM GTPγS. The drugs were incubated in the assay for 60 min at 30 °C. The reaction was terminated by a rapid vacuum filtration method using Tris-binding buffer, as described previously, and the radioactivity was quantified by liquid scintillation spectrometry. In all the [^35S]GTPγS-binding assays, we used 0.1 nM [^35S]GTPγS, 30 μM GDP and a protein concentration of 40 μg per well for PC3 and LNCaP cell membranes. Compounds were stored at −20 °C in DMSO.
Paired Student’s t-test or one-way ANOVA analysis of variance (with Tukey’s post hoc analysis) was used where appropriate for cell viability and western blotting data. A value of p < 0.05 was taken as being significant.

[6] = system: cannabinoid CB1 or CB2 receptors (LNCaP cell membranes); assay: [35S]GTPγS binding in LNCaP cell membranes; format: biochemical, human; conditions: agonist alone, read-out: EC50, stimulation of [35S]GTPγS binding
Experimental: as §4
as §5, with “DMSO. […]” for “DMSO.”

[7] = system: FSK-induced cAMP production in PC3 cells; assay: Cyclic AMP assay (HitHunter), FSK-induced cAMP production in PC3 cells; format: cell-based, human; conditions: for Imax, inhibition of FSK-induced cAMP production / pIC50, inhibition of FSK-induced cAMP production / IC50: agonist alone; for IC50: read-out: IC50, inhibition of FSK-induced cAMP production
Experimental: The assays were performed using the HitHunter® cAMP assay kit (Eurofins DiscoverX Products, Celle-L’Evescault, France) according to the vendor’s protocol and previous studies. Briefly, cells were detached using cell dissociation buffer, counted and seeded at 2 × 10^4 cells per well in […] of complete medium onto white 96-well plates and incubated at 37 °C and 5% CO2 for approximately 24 h before running the experiment. The assays and the drug dilutions were performed in a 1:1 mixture of DMEM and Ham’s F12 medium without phenol red, containing […] of rolipram and forskolin (FSK; 7b-acetoxy-8,13-epoxy-1a,6b,9 atrihydroxylabd-14-en-11-one). Before running the assay, the medium was discarded, and cells were washed with D-MEM/F-12 medium. Then, cells were treated with the assigned drugs (30 μL per well) and incubated for 30 min at 37 °C and 5% CO2. Finally, cAMP standards and the appropriate mixture of kit components were added (as described by the manufacturer, Eurofins DiscoverX Products, Celle-L’Evescault, France). Plates were incubated overnight at room temperature in the dark. Chemiluminescent signals were detected on a Synergy HT Multi-Mode Microplate Reader (ThermoFisher Scientific, Loughborough, UK).
as §3

[8] = system: cleaved caspase 3 (CASP-3); assay: Western blot of cleaved caspase 3 levels in PC3 cells; format: cell-based, human
Experimental: (§6) Cells were homogenized in lysis buffer [20 mM Tris, 0.25 M sucrose, 10 mM ethyleneglycol-bis(aminoethylether)-tetraacetic acid, 2 mM ethylenediaminetetraacetic acid, 1 mM sodium orthovanadate, 25 mM sodium β-glycerophosphate and 50 mM sodium fluoride; pH 7.5]. Prior to use, 0.1% (vol:vol), protease Inhibitor Cocktail (Merck Life Science Ltd, Gillingham, UK) was added. A total of 20 μg of protein was electrophoresed through a precast 16% polyacrylamide gel (Thermo Fisher, Oxford, UK) for 2 h and the separated proteins were transferred to nitrocellulose membranes (Bio-Rad, UK), then blocked with 5% (wt:vol) skimmed milk in Tris-buffered saline with 0.1% (vol:vol) Tween 20 (TBST solution) at room temperature and incubated with 1:200 dilution of anti-pAKT (Ser473) antibody (Merck Life Science Limited, Watford, Hertfordshire UK) or 1:200 cleaved-CASP-3 antibody (Insight Biotechnology, UK) at 4 °C overnight. β-Actin (1:20,000) was used as an internal loading control to normalize between lanes during densitometry. The appropriate secondary antibody for pAKT (anti-mouse), cleaved-CASP-3 (anti-mouse) was used at a concentration of 1:5000 (Insight Biotechnology Ltd, Wembley, Middlesex, UK) and incubated at room temperature for 1 h. […]

[9] = system: phosphor-AKT (Ser473); assay: Western blot of phospho-AKT (Ser473) levels in PC3 cells; format: cell-based, human
Experimental: as §6

Row | Structure (SMILES) | IC50 [1] [nM] | Imax, cell viability [1] | pIC50, cell viability [1] | IC50 [2] [nM] | Imax, cell viability [2] | pIC50, cell viability [2] | Functional behaviour on CB1 receptors [3] | Functional behaviour on CB2 receptors [4] | Agonist behaviour in [35S]GTPγS binding [5] | EC50 [5] [nM] | EC50 [6] [nM] | Imax, inhibition of FSK-induced cAMP production [7] | pIC50, inhibition of FSK-induced cAMP production [7] | IC50 [7] [nM] | Cleaved CASP-3 level ([8]; DIM 50 nM) | Cleaved CASP-3 level ([8]; DIM 50 µM) | pAKT level ([9]; DIM 50 nM) | pAKT level ([9]; DIM 50 µM) | Effect of CB1 antagonist on DIM's inhibition of FSK-induced cAMP production [7]
1 | c1ccc2c(Cc3c[nH]c4ccccc34)c[nH]c2c1 [DIM, 3-3′-Diindolylmethane] | 38900 | 8.50 | 4.410 | 85000 | -16.63 | 4.071 | slight inverse agonist | partially activate; also recorded: partial agonist | full agonist behavior | 9.28 | 32.1 | 17.36 | 7.870 | 13.5 | significant increase | significant increase | no significant reduction | strong and significant reduction | –
2 | CCCCCCC(C)(C)c1ccc([C@@H]2C[C@H](O)CC[C@H]2CCCO)c(O)c1 [CP 55,940] | – | – | – | – | – | – | – | – | – | 6.14 | 2.56 | 9.74 | 8.314 | 4.85 | – | – | – | – | –
3 | Cc1c(C(=O)NN2CCCCC2)nn(-c2ccc(Cl)cc2Cl)c1-c1ccc(Cl)cc1 [SR1] | – | – | – | – | – | – | – | – | – | – | – | – | – | – | – | – | – | – | no effect
